These results are taken from publication PMC10811921 (Virology Journal, 2024).

Molecules are shown by their SMILES.

The target of this assay is T1, furin (Homo sapiens, UniProt P09958).
T1 construct: recombinant soluble human furin
The assay can be described thus: fluorogenic protease assay with Pyr-RTKR-AMC substrate. Type of assay: biochemical.

T1 sequence (P09958 108-715): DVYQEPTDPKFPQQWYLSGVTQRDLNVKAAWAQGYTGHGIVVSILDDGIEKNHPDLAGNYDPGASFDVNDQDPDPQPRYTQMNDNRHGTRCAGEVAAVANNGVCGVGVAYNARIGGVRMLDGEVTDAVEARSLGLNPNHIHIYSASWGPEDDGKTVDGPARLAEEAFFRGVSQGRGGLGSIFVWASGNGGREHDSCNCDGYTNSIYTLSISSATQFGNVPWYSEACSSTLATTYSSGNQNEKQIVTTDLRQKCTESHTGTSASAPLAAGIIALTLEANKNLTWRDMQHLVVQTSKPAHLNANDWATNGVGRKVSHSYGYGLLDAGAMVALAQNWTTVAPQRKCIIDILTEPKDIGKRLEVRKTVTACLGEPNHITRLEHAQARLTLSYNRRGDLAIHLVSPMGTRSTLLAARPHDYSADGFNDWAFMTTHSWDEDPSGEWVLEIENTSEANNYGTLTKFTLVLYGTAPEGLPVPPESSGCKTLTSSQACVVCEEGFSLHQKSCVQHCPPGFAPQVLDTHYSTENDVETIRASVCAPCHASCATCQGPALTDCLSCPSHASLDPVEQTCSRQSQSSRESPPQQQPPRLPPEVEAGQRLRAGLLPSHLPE

In the case of `O=c1c(O)c(-c2ccc(O)c(O)c2)oc2cc(O)cc(O)c12` [QC, quercetin], the half-maximal inhibitory concentration (IC50) is around 116 µM.
